Literature values, collected in PMC4207555 (Drug Design, Development and Therapy, 2014).
Like-named read-outs stand apart in the source and are kept apart here.

Assays:
[1] = test system: P-glycoprotein-expressing cell lines bearing acquired resistance; details: range across P-glycoprotein-expressing cell lines
[2] = test system: pediatric sarcoma xenograft; details: five of six models
[3] = rats, ref Sanofi, data on file; for HNLD as single dose: 2013
[4] = test system: P-glycoprotein
[5] = mice
[6] = test system: mCRPC that had progressed on previous docetaxel-based therapy; details: for median overall survival / median progression-free survival: plus prednisone/prednisolone
[7] = in situ brain perfusion, wild-type mice; ref 47 (unpublished data)
[8] = dogs; ref Sanofi, data on file, 2013
[9] = test system: plasma protein; details: rats; ref Sanofi, data on file, 2010
[10] = not given; remark: listed apart in the source
[11] = test system: bone marrow; details: ref Sanofi, data on file, 2010
[12] = ref Sanofi, data on file, 2010
[13] = test system: human intracranial glioblastoma xenograft; details: two models, respective HNTDs
[14] = test system: Breast Calc18/TXT; details: P-glycoprotein-overexpressing Calc18/TXT
[15] = dogs
[16] = test system: plasma protein; details: dogs; ref Sanofi, data on file, 2010
[17] = not given; remark: listed apart in the source
[18] = ref Sanofi, data on file, 2010; remark: listed apart in the source
[19] = not given; remark: listed apart in the source
[20] = mice, ref Sanofi, data on file; for NOEL for central neurotoxicity / NOEL for peripheral neurotoxicity: 2010
[21] = humans
[22] = rats, ref Sanofi, data on file, 2010
[23] = test system: plasma protein; details: humans; ref Sanofi, data on file, 2010
[24] = test system: plasma protein; details: rabbits; ref Sanofi, data on file, 2010
[25] = test system: bacterial reverse mutation; details: ref Sanofi, data on file, 2010
[26] = dogs, ref Sanofi, data on file, 2010
[27] = test system: plasma protein; details: mice; ref Sanofi, data on file, 2010
[28] = not given; remark: listed apart in the source
[29] = test system: tubulin
[30] = test system: HID28; details: for percentage tumor volume change (treated/control mean tumor volume): Day 35
[31] = after IV administration; ref Sanofi, data on file, 2010
[32] = test system: B16/TXT melanoma; details: B16/TXT acquired-resistance model, no P-glycoprotein overexpression
[33] = male or female rats; ref Sanofi, data on file, 2010
[34] = test system: Prostate DU 145; details: DU145 xenograft
[35] = test system: cell lines with resistance mechanisms other than P-glycoprotein overexpression
[36] = single-dose studies in mice, rats, and dogs; ref Sanofi, data on file, 2013
[37] = test system: microtubules; details: read-out: stabilization of microtubules against cold-induced depolymerization (concentration producing 50% cell killing)
[38] = test system: Breast UISO BCA-1; details: UISO BCA-1, dose level below HNTD (9.3 mg/kg per injection)
[39] = Phase III clinical studies in a number of tumor types
[40] = 0–48 hours, mice bearing subcutaneous MA16/C

SMILES: CO[C@H]1C(=O)[C@]2(C)[C@@H](OC)C[C@H]3OC[C@@]3(OC(C)=O)[C@H]2[C@H](OC(=O)c2ccccc2)[C@]2(O)C[C@H](OC(=O)[C@H](O)[C@@H](NC(=O)OC(C)(C)C)c3ccccc3)C(C)=C1C2(C)C [Cabazitaxel]
- Resistance factors [1]: 2–10
- tumor growth inhibition and tumor regression versus equivalent doses of docetaxel [2]: significantly greater tumor growth inhibition and tumor regression
- pathway D (cleavage of the parent drug), share of the dose (all species including humans): < 0.3%
- excretion via the urinary route (mice, rats, and dogs): 1%–4
- excretion, % of the administered dose (mice, rats, and dogs): 91%–95
- radioactivity excreted in the feces, % of the administered dose (mice, rats, and dogs): 87%–91
- administered dose excreted unchanged (mice, rats, dogs, and humans): less than 2.5%
- NOEL for central neurotoxicity ([3]; single-dose, 1 min infusion, 2010): >10 mg/kg/day
- NOEL for central neurotoxicity ([3]; ten-cycle, 1 hr infusion, 2010): >10/20
- NOEL for peripheral neurotoxicity ([3]; ten-cycle, 1 hr infusion, 2010): <1 mg/kg/day
- HNLD as single dose [3]: 2.5 mg/kg
- uptake across the BBB, P-glycoprotein-deficient versus control mice [4]: threefold higher
- pathway C (t-butyl-hydroxylation on the lateral chain), share of the dose [5]: 41%
- two O-demethylation pathways (A and B), share of the dose excreted [5]: 45%
- grade ≥3 anemia, patients [6]: 11%
- grade ≥3 diarrhea [6]: 6%
- grade ≥3 leukopenia, patients [6]: 68%
- grade ≥3 neutropenia, patients [6]: 82%
- patients who died within 30 days of the last infusion [6]: 5%
- patients with dose reduction [6]: 12%
- patients with treatment delay [6]: 28%
- peripheral neuropathy, patients [6]: 14%
- prostate-specific antigen response [6]: 39.2%
- rate of objective tumor response [6]: 14.4%
- median overall survival [6]: 15.1 months
- median progression-free survival [6]: 2.8 months
- grade 3 peripheral neuropathy, patients ([6]; three patients): 1%
- hazard ratio, death ([6]; versus mitoxantrone): 0.70
- hazard ratio, progression-free survival ([6]; versus mitoxantrone): 0.74
- reduction in the risk of death ([6]; versus mitoxantrone): 30%
- brain penetration versus paclitaxel or docetaxel [7]: two- to threefold greater
- HNLD as single dose [8]: 0.5 mg/kg
- Plasma protein binding [9]: 95.5%
- overall brain exposure relative to plasma [10, 40]: 3.7 fold
- overall brain exposure relative to tumor tissue [10, 40]: 2.3 fold
- time to maximum drug concentrations in tumor tissue ([10]; MA16/C-bearing mice, 40 mg/kg): ≤ 15 min
- concentration within the tumor versus plasma ([10]; after 48 hours, MA16/C-bearing mice, 40 mg/kg): 40 fold
- exposure in tumor compared with plasma ([10]; during the 48 hours following administration, 40 mg/kg): 1.6 times
- exposure in tumor compared with plasma ([10]; entire experimental period (168 hours), 40 mg/kg): 2.9 times
- volume of distribution at steady state ([10]; tumor-bearing mice, single IV administration, ref Sanofi, data on file, 2010): 8.8 L/kg
- Plasma clearance ([10]; tumor-bearing mice, single IV infusion, ref Sanofi, data on file, 2010): 28.3 mL/min/kg
- terminal half-life ([10]; tumor-bearing mice, ref Sanofi, data on file, 2010): 26 h
- in vivo rat bone marrow micronucleus test [11]: increase in micronuclei
- volume of distribution at steady state ([12]; healthy mice, single IV administration): 2.5 to 3.7 L/kg
- Plasma clearance ([12]; normal mice, single IV infusion): 15 to 18.3 mL/min/kg
- terminal half-life ([12]; normal mice): 5.1 to 7.6 h
- antitumor activity (increase in life span) versus docetaxel [13]: enhanced antitumor activity compared with docetaxel
- antitumor activity [14]: not active
- two O-demethylation pathways (A and B), share of the dose excreted [15]: 54%
- Plasma protein binding [16]: 97.1%
- radioactivity excreted via the biliary route, % of the administered dose ([17]; bile-duct-cannulated male rats, within 48 hours): 65%
- pathway C (t-butyl-hydroxylation on the lateral chain), share of the dose excreted ([17]; male and female rats): 49%–55
- in vitro chromosome aberration test [18]: increased number of polyploid cells
- logP [19]: 3.9
- NOEL for central neurotoxicity ([20]; 5-day, 1 min infusion): >7 mg/kg/day
- NOEL for peripheral neurotoxicity ([20]; 5-day, 1 min infusion): 3 mg/kg/day
- NOEL for central neurotoxicity ([20]; five-cycle, 1 hr infusion): 10 mg/kg/day
- NOEL for peripheral neurotoxicity ([20]; five-cycle, 1 hr infusion): 5 mg/kg/day
- NOEL for central neurotoxicity ([20]; single-dose, 1 min infusion): 10 mg/kg/day
- NOEL for peripheral neurotoxicity ([20]; single-dose, 1 min infusion): 10 mg/kg/day
- NOEL for central neurotoxicity ([20]; single-dose, 1 hr infusion): 10 mg/kg/day
- NOEL for central neurotoxicity ([20]; weekly, 1 min infusion): 5 mg/kg/day
- NOEL for peripheral neurotoxicity ([20]; weekly, 1 min infusion): 5 mg/kg/day
- HNLD as single dose [20]; 2013: 30 mg/kg
- pathway C (t-butyl-hydroxylation on the lateral chain), share of the dose [21]: 21%
- two O-demethylation pathways (A and B), share of the dose excreted [21]: 40%
- volume of distribution at steady state ([22]; single IV administration): 22.7 L/kg
- Plasma clearance ([22]; single IV infusion): 80 mL/min/kg
- terminal half-life [22]: 10 h
- Plasma protein binding [23]: 91.9%
- Plasma protein binding [24]: 91.4%
- mutations in the bacterial reverse mutation (Ames) test [25]: did not induce mutations
- volume of distribution at steady state ([26]; single IV administration): 3.3 to 14.5 L/kg
- Plasma clearance ([26]; single IV infusion): 41.7 to 88.3 mL/min/kg
- terminal half-life [26]: 3.0 to 4.3 h
- Plasma protein binding [27]: 99.3%
- population half-life, initial phase ([28]; 170 patients): 4.4 min
- population half-life, intermediate phase ([28]; 170 patients): 1.6 h
- population half-life, terminal phase ([28]; 170 patients): 95.1 h
- mean volume of distribution at steady state (population PK estimate) ([28]; median BSA 1.84 m^2): 2,640 L/m^2
- plasma clearance (population PK estimate) ([28]; median BSA 1.84 m^2): 26.4 L/h/m^2
- lag time to 50% aggregation (reduction in lag time for tubulin assembly) [29]: 0 to 0.1 µmol/L
- partial remissions ([30]; HID28, 20 mg/kg): four out of ten
- percentage tumor volume change (treated/control mean tumor volume) ([30]; HID28, 20 mg/kg): 1.4%
- effects in CNS, respiratory, gastrointestinal, renal, and cardiovascular systems [31]: no physiologically relevant effects
- antitumor activity [32]: demonstrated antitumor activity
- mating performance or fertility [33]: did not affect
- complete tumor regressions (CR) [34]: 100%
- long-term tumor-free survival (TFS) [34]: 83%
- cross-resistance [35]: no cross-resistance
- highest non-lethal doses, times lower with cabazitaxel than with docetaxel [36]: 3- to 4 times
- IC50 [37]: 100 to 250 nM
- log cell kill [38]: 4.4

SMILES: CC(=O)O[C@@]12CO[C@@H]1C[C@H](O)[C@@]1(C)C(=O)[C@H](O)C3=C(C)[C@@H](OC(=O)[C@H](O)[C@@H](NC(=O)OC(C)(C)C)c4ccccc4)C[C@@](O)([C@@H](OC(=O)c4ccccc4)[C@H]21)C3(C)C [Docetaxel, reference compound]
- Resistance factors [1]: 5–59
- HNLD as single dose [3]: 10 mg/kg
- logP [19]: 3.2
- administered dose of 14C excreted in the feces ([21]; over 7 days): 80%
- administered dose of 14C recovered in the urine ([21]; over 7 days): approximately 5%
- lag time to 50% aggregation (reduction in lag time for tubulin assembly) [29]: 0 to 0.1 µmol/L
- percentage tumor volume change (treated/control mean tumor volume) ([30]; HID28, 20 mg/kg): 16.7%
- IC50 [37]: 100 to 250 nM
- incidence of grade 3/4 sensory neuropathy [39]: 0%–7

SMILES: CC(=O)O[C@H]1CC[C@@]2(C)C(=CC[C@@H]3[C@@H]2CC[C@]2(C)C(c4cccnc4)=CC[C@@H]32)C1 [abiraterone acetate, reference compound]
- antitumor activity ([30]; HID28, 50 mg/kg orally daily for 21 days): No antitumor activity

SMILES: O=C1c2c(O)ccc(O)c2C(=O)c2c(NCCNCCO)ccc(NCCNCCO)c21 [mitoxantrone, reference compound]
- prostate-specific antigen response [6]: 17.8%
- rate of objective tumor response [6]: 4.4%
- median overall survival [6]: 12.7 months
- median progression-free survival [6]: 1.4 months
